From patent US7713994B2 (Wyeth LLC, priority 2005, dated 2010)
Where two headings read alike, the source gives them in different places.

Columns and labels:
cyclin E/CDK2 enzyme = biological target: T1, cyclin E/CDK2 enzyme (Homo sapiens, UniProt P24941); test: CDK2 ELISA kinase assay (phospho-Rb ser 795 detection); format: biochemical; details: In Vitro Enzyme Assays, read-out: CDK2 IC50
T1 construct: made in house; host or cells: Sf9 insect cells, recombinant baculovirus
Method in brief: (§1)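 ELISA format: plate-bound GST-Rb, 200 μM ATP, Sf9 cyclin/CDK enzyme, 1 h at 30° C; then anti-pRb Ser795 primary overnight at 4° C, HRP secondary, TMB. IC50 after no-substrate background subtraction.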

BT474 = test: Cytotoxicity assay (SRB), BT474; format: cell-based; details: BT474 cells, SRB, 6 days, read-out: In Vitro Cellular Activity IC50 BT474
Method in brief: (§2)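 Cells grown in RPMI 1640 with 5% FBS were treated with compound for three days (HCT-116, LoVo, MCF-7) or six days (BT474). Viable cell mass was quantified by sulforhodamine B staining of TCA-fixed protein and read at 540 nm.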

MCF-7 = test: Cytotoxicity assay (SRB), MCF-7; format: cell-based; details: MCF-7 cells, SRB, three days, read-out: In Vitro Cellular Activity IC50 MCF-7
Method in brief: as §2

cyclin D1/cdk 4 enzyme = biological target: T2, cyclin D1/cdk 4 enzyme (Homo sapiens, UniProt P11802); test: CDK4 ELISA kinase assay (phospho-Rb ser 795 detection); format: biochemical; details: In Vitro Enzyme Assays, 200 μM ATP, read-out: CDK4 IC50
T2 construct: made in house; host or cells: Sf9 insect cells, recombinant baculovirus
Method in brief: as §1

cyclin B/CDK1 enzyme = biological target: T3, cyclin B/CDK1 enzyme (Homo sapiens, UniProt P06493); test: CDK1 ELISA kinase assay (phospho-Rb ser 795 detection); format: biochemical; details: In Vitro Enzyme Assays, read-out: CDK1 IC50
T3 construct: purchased New England BioLabs; host or cells: Sf9 insect cells, recombinant baculovirus
Method in brief: as §1

HCT-116 = test: Cytotoxicity assay (SRB), HCT-116; format: cell-based; details: HCT116 cells, SRB, three days, read-out: In Vitro Cellular Activity IC50 HCT116
Method in brief: as §2

LoVo = test: Cytotoxicity assay (SRB), LoVo; format: cell-based; details: LoVo cells, SRB, three days, read-out: In Vitro Cellular Activity IC50 LOVO
Method in brief: as §2

T2 sequence (P11802 whole entry, species assumed): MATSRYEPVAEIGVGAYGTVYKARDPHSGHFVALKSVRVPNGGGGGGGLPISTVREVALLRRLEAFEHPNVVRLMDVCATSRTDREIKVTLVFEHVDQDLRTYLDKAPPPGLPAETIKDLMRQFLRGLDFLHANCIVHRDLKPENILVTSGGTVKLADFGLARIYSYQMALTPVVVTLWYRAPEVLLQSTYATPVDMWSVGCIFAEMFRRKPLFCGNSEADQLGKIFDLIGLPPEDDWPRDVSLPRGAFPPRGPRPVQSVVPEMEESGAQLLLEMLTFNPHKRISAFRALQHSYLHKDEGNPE
T2 sequence (P24385 whole entry partner, species assumed): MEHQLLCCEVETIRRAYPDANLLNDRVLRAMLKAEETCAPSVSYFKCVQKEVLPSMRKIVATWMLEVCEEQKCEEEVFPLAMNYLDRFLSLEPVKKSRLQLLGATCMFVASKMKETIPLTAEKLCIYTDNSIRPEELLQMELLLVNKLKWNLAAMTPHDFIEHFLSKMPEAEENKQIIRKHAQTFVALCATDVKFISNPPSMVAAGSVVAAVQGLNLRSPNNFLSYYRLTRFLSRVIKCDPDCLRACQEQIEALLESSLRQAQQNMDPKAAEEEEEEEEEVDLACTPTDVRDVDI
T3 sequence (P06493 whole entry): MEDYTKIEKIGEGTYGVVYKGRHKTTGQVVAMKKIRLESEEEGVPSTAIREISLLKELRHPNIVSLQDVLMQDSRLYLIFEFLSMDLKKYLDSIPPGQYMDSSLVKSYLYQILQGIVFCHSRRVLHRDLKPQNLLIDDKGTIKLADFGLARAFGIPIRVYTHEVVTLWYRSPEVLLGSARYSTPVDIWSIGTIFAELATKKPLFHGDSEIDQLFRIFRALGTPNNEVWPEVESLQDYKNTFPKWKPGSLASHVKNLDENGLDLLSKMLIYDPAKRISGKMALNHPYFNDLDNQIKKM
T3 sequence (P14635 whole entry partner): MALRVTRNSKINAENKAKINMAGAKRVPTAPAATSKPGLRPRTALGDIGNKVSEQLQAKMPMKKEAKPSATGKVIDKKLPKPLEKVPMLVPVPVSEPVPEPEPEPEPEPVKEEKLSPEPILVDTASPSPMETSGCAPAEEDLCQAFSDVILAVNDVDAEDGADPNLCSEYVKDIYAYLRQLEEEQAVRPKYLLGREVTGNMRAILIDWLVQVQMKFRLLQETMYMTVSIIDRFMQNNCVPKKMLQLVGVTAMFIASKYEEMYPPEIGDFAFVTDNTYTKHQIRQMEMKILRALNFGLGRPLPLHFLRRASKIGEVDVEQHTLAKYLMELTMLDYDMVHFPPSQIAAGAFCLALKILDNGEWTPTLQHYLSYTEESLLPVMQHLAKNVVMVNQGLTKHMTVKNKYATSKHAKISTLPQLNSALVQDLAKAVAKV

Row | Structure (SMILES) | IC50 (cyclin E/CDK2 enzyme) [µM] | IC50 (cyclin D1/cdk 4 enzyme) [µM] | IC50 (cyclin B/CDK1 enzyme) [µM] | IC50 (BT474; Homo sapiens, BT-474, 144 h) [µM] | IC50 (MCF-7; Homo sapiens, MCF7, 72 h) [µM] | IC50 (HCT-116; Homo sapiens, HCT-116, 72 h) [µM] | IC50 (LoVo; Homo sapiens, LoVo, 72 h) [µM] | IC50 (BT474) [µM] | IC50 (MCF-7) [µM] | IC50 (HCT-116) [µM] | IC50 (LoVo) [µM]
1 | O=C1NC(=O)c2ccc(Br)cc2/C1=C/NCc1ccc(OCc2ccccc2)c(O)c1 [Example 147, (4Z)-4-({[4-(Benzyloxy)-3-hydroxybenzyl]amino}methylene)-6-bromoisoquinoline-1,3(2H,4H)-dione] | 27.7 | 4.6 | > 50 | > 50 | 36 | 38 | 40 | – | – | – | –
2 | CCCCOc1ccc(CN/C=C2\C(=O)NC(=O)c3ccc(Br)cc32)cc1O [Example 148, (4Z)-6-Bromo-4-{[(4-butoxy-3-hydroxybenzyl)amino]methylene}isoquinoline-1,3(2H,4H)-dione] | 31.7 | 0.44 | > 50 | 16 | 25 | 18 | 22 | – | – | – | –
3 | CCCCCCOc1ccc(CN/C=C2\C(=O)NC(=O)c3ccc(Br)cc32)cc1O [Example 150, (4Z)-6-Bromo-4-({[4-(hexyloxy)-3-hydroxybenzyl]amino}methylene)isoquinoline-1,3(2H,4H)-dione] | > 50 | 7.2 | > 50 | > 50 | 46 | 49 | > 50 | – | – | – | –
4 | CN1CCN(c2ccc(N/C=C3\C(=O)NC(=O)c4ccc(-c5cccc(F)c5)cc43)cc2)CC1 [Example 154, 6-(3-Fluoro-phenyl)-4-{[4-(4-methyl-piperazin-1-yl)-phenylamino]-methylene}-4H-isoquinoline-1,3-dione] | > 50 | 3.3 | > 50 | 3 | 2.7 | 2.2 | 3.2 | – | – | – | –
5 | COc1ccc(CN(C)/C=C2\C(=O)NC(=O)c3ccc(Br)cc32)cc1O [Example 163, (4Z)-6-Bromo-4-{[(3-hydroxy-4-methoxybenzyl)(methyl)amino]methylene}isoquinoline-1,3(2H,4H)-dione] | 44.4 | > 50 | > 50 | 38 | 38 | 38 | 34 | – | – | – | –
6 | CCOc1ccc(CN/C=C2\C(=O)NC(=O)c3ccc(Br)cc32)cc1O [Example 166, (4Z)-6-Bromo-4-{[(4-ethoxy-3-hydroxybenzyl)amino]methylene}isoquinoline-1,3(2H,4H)-dione] | 45.5 | 0.03 | > 50 | 1.4 | 19 | 1.3 | 2.2 | – | – | – | –
7 | O=C1NC(=O)c2ccc(-c3ccco3)cc2C1=CNc1ccc(CN2CCCC2)cc1 [Example 169, 6-Furan-2-yl-4-[(4-pyrrolidin-1-ylmethyl-phenylamino)-methylene]-4H-isoquinoline-1,3-dione] | > 50 | 0.2 | > 50 | 1.8 | 2.5 | 2.6 | 5.2 | – | – | – | –
8 | COc1ccc(C(C)N/C=C2\C(=O)NC(=O)c3ccc(Br)cc32)cc1O (centres unmarked) [Example 189, (4Z)-6-Bromo-4-({[1-(3-hydroxy-4-methoxyphenyl)ethyl]amino}methylene)isoquinoline-1,3(2H,4H)-dione] | > 50 | 0.37 | > 50 | 5.8 | 9.9 | 7.2 | 6.4 | – | – | – | –
9 | CCCOc1ccc(CN/C=C2\C(=O)NC(=O)c3ccc(-c4cccc(F)c4)cc32)cc1O [Example 193, (4Z)-6-(3-Fluorophenyl)-4-{[(3-hydroxy-4-propoxybenzyl)amino]methylene}-isoquinoline-1,3(2H,4H)-dione] | > 50 | 1.4 | > 50 | > 50 | 4.4 | 16 | > 50 | – | – | – | –
10 | CCCOc1ccc(CN/C=C2\C(=O)NC(=O)c3ccc(-c4ccc(F)c(F)c4)cc32)cc1O [Example 194, (4Z)-6-(3,4-Difluorophenyl)-4-{[(3-hydroxy-4-propoxybenzyl)amino]methylene}-isoquinoline-1,3(2H,4H)-dione] | > 50 | 15.8 | > 50 | > 50 | 9.1 | > 50 | > 50 | – | – | – | –
11 | CCCOc1cc(O)cc(CN/C=C2\C(=O)NC(=O)c3ccc(Br)cc32)c1 [Example 195] | > 50 | 2 | > 50 | 17 | 14 | 6.9 | 37 | – | – | – | –
12 | COc1ccc(C(=O)NN/C=C2\C(=O)NC(=O)c3ccc(Br)cc32)cc1O [Example 202, N′-[(Z)-(6-Bromo-1,3-dioxo-2,3-dihydroisoquinolin-4(1H)-ylidene)methyl]-3-hydroxy-4-methoxybenzohydrazide] | > 50 | 33.2 | > 50 | 18 | > 50 | > 50 | > 50 | – | – | – | –
13 | C[C@@H]1CN(c2ccc(N/C=C3\C(=O)NC(=O)c4ccc(-c5ccc(F)cc5)cc43)cc2)C[C@H](C)N1 [Example 205, (4Z)-4-({[4-(3,5-Dimethylpiperazin-1-yl)phenyl]amino}methylene)-6-(4-fluorophenyl)-isoquinoline-1,3(2H,4H)-dione] | 48.6 | 0.44 | 31 | 2.4 | 1.5 | 1.1 | 3.1 | – | – | – | –

The next molecules have a lower IC50 (cyclin E/CDK2 enzyme) than those just listed; values first:

Row | IC50 (cyclin E/CDK2 enzyme) [µM] | IC50 (cyclin D1/cdk 4 enzyme) [µM] | IC50 (cyclin B/CDK1 enzyme) [µM] | Structure (SMILES) | IC50 (BT474; Homo sapiens, BT-474, 144 h) [µM] | IC50 (MCF-7; Homo sapiens, MCF7, 72 h) [µM] | IC50 (HCT-116; Homo sapiens, HCT-116, 72 h) [µM] | IC50 (LoVo; Homo sapiens, LoVo, 72 h) [µM] | IC50 (BT474) [µM] | IC50 (MCF-7) [µM] | IC50 (HCT-116) [µM] | IC50 (LoVo) [µM]
14 | 6.1 | 0.004 | 26.3 | CC(=O)Nc1ccc(CN/C=C2\C(=O)NC(=O)c3ccc(-c4ccsc4)cc32)cc1O [Example 145, N-[4-({[(Z)-(1,3-Dioxo-6-thien-3-yl-2,3-dihydroisoquinolin-4(1H)-′ylidene)methyl]amino}methyl)-2-hydroxyphenyl]acetamide] | > 50 | > 50 | 32.5 | 16 | – | – | – | –
15 | 1.8 | 0.03 | 36.4 | CC(=O)Nc1ccc(CN/C=C2\C(=O)NC(=O)c3ccc(I)cc32)cc1O [Example 151, N-[2-Hydroxy-4-({[(Z)-(6-iodo-1,3-dioxo-2,3-dihydroisoquinolin-4(1H)-′ylidene)methyl]amino}methyl)phenyl]acetamide] | 0.9 | 6.6 | 1.3 | 1.9 | – | – | – | –
16 | 4.3 | 0.8 | 4.3 | CN1CCN(c2ccc(N/C=C3\C(=O)NC(=O)c4ccc(-c5ccc(C#N)cc5)cc43)cc2)CC1 [Example 153, 4-(4-{[4-(4-Methyl-piperazin-1-yl)-phenylamino]-methylene}-1,3-dioxo-1,2,3,4-tetrahydro-isoquinolin-6-yl)-benzonitrile] | 3.4 | 3.4 | 1.1 | 3.7 | – | – | – | –
17 | 4.7 | 0.11 | > 50 | O=C1NC(=O)c2ccc(Br)cc2/C1=C/NCc1cc(O)ccc1O [Example 173, (4Z)-6-Bromo-4-{[(2,5-dihydroxybenzyl)amino]methylene}isoquinoline-1,3(2H,4H)-dione] | 8.3 | 12 | 11 | 17 | – | – | – | –
18 | 18.5 | 4.5 | 3.1 | O=C1NC(=O)c2ccc(Br)cc2/C1=C/NCc1ccc(O)c(O)c1O [Example 175] | > 50 | > 50 | 28 | > 50 | – | – | – | –
19 | 22.1 | 3.1 | 12 | CN1CCN(c2ccc(N/C=C3\C(=O)NC(=O)c4ccc(NC(=O)Cc5cccs5)cc43)cc2)CC1 [Example 198, 1,2,3,4-Tetrahydroisoquinolin-6-yl]-2-thien-2-ylacetamide ′N-[(4Z)-4-({[4-(4-methylpiperazin-1-yl)phenyl]amino}methylene)-1,3-dioxo] | – | – | – | – | 4.3 | 4.3 | 1.8 | 3.7
20 | 26.5 | 0.009 | > 50 | O=C1NC(=O)c2ccc(-c3ccsc3)cc2/C1=C/NCc1ccc(OC(F)F)c(O)c1 [Example 200, (4Z)-4-({[4-(Difluoromethoxy)-3-hydroxybenzyl]amino}methylene)-6-thien-3-ylisoquinoline-1,3(2H,4H)-dione] | 9.3 | 7.2 | 5.4 | 4.7 | – | – | – | –
